From US20100279941A1, “CD36 MODULATION AND USES THEREOF” (priority 2009, published 2010)
Numbered stars: 1 amine (or outer) side, 2 acyl side, 3 side chain; on linkers, the order of the positions; unused ones are H or OH. Square brackets hold non-standard residues; d marks the D form. Peptide text beside a SMILES is read from it. azaPhe = O=C(N(Cc1ccccc1)N[*:1])[*:2]; azaPro = O=C(N1CCCN1[*:1])[*:2]

How the values were obtained:
Assay type in all cases: in vivo
[1] = test system: CD36^+/+ and CD36^−/− mice; experiment: Area at risk and infarct size after 30-min LCAL and 48 hours reperfusion (Evans blue/TTC)
Source text: Animals. CD36^−/− mice were generated by targeted homologous recombination and backcrossed six times to C57BI/6. Wild-type control littermates (CD36^+/+) were bred from the same cross and were therefore of identical genetic background [Febbraio et al., 2000]. Male mice, aged 23 (±1) weeks, were used for experiments. They were fed standard chow (#5075, Charles Rivers, Saint-Constant, Québec, Canada) and water ad libitum, and housed singly during treatment periods (2 or 10 weeks). Daily pharmacological treatments with 300 μg/kg of EP 80317 or CP1A(IV) or vehicle (0.9% NaCl) were done by subcutaneous (s.c.) injections.
(§1) C57BU6 mice were bred in house. Male mice, aged 23 (±1) weeks, were used for experiments. They were fed standard chow (#5075, Charles Rivers, Saint-Constant, Québec, Canada) and water ad libitum, and housed singly during treatment periods (2 weeks). Daily pharmacological treatments with 300 μg/kg (289 nmol/kg) of EP 80317 or 289 nmol/kg of CP-3(IV), 289 nmol/kg of CP-AP-4 or vehicle (0.9% NaCl) were done by subcutaneous (s.c.) injections.
(§2) Experimental model of IHD: Transient left coronary artery ligation in vivo. Mice were subjected to a transient LCAL surgery as described before, with minor modifications [Tarnayski et al., 2004]. Mice were injected i.p. with buprenorphine (0.05 mg/kg) and placed in an induction chamber with inhalation anesthesia comprised of 3% isoflurane mixed with 100% oxygen. Mice were intubated with a blunt ended 20-gauge catheter into the trachea via the mouth and mechanically ventilated at a tidal volume of 7 ml/kg at 130 respirations/min with a MiniVent™ mouse ventilator (model 845, Harvard Apparatus, Saint-Laurent, QC, Canada). Anesthesia was maintained with 1.5-2% isoflurane and the animals were kept warm using electrical heating pads during the surgical procedure. The chest was opened by a horizontal incision through the skin and muscle layers at the third intercostal space exposing the left side of the heart. […] Visual blanching distal to the coronary occlusion confirmed myocardial ischaemia. Lidocaine (6 mg/kg) was administered i.p. just following occlusion and prior to reperfusion. After 30 minutes, the PE10 tubing was removed allowing reperfusion. The lungs were reinflated and the chest wound closed layer by layer before extubation. At 6 hours following reperfusion, mice were anesthetized (isoflurane), a blood sample withdrawn, and the heart arrested in diastole by an intravenous injection of 1 M KCl (0.5 mL). Hearts were immediately frozen at −80° C. unless otherwise stated.
Evaluation of area at risk and infarct size. Two days after reperfusion, the left anterior descending (LAD) coronary artery was re-occluded at the original site and the abdominal aorta was injected retrogradly with 5% Evans blue dye to delineate the AAR by the absence of dark blue staining. The left ventricle, including the interventricular septum, was dissected and cut into transverse 1-mm slices from the apex to the base, using an acrylic matrix (Alto Inc., Hatfield, Pa., USA). The slices were incubated in 1% triphenyltetrazolium chloride solution at 37° C. for 15 min and placed in 10% neutral buffered formalin for 12 hours. Each slice was weighed and photographed on both sides with a digital camera (Nikon, Coolpix™ 4500, Mississauga, Ontario, Canada). The total LV area, AAR and IA were determined for each side of a slice by planimetric analysis using Adobe CS3 Photoshop™ software (Ottawa, ON, Canada), and averaged. The infarct weight was determined as follows: [(A1×WT1)+(A2×WT2)+(A3×WT3)+(A4×WT4) . . . ] where A and WT are the infarct area and weight of the section, respectively. The AAR weight was calculated in a similar manner, but by subtracting the blue (viable) stained zone from the weight. The results are expressed in terms of % IA/AAR, IA/LV and AAR/LV.

[2] = test system: C57BL/6 mice; experiment: Cardiac troponin I (cTnI) in plasma, ELISA; details: 48 hours post-ischemia; 2 weeks 289 nmol/kg; compared to vehicle
Method: as §1
as §2, with “At 6 hours following reperfusion, mice were anesthetized (isoflurane), a blood sample withdrawn, and the heart arrested in diastole by an intravenous injection of 1 M KCl (0.5 mL).” left out
Cardiac troponin I (cTnI) concentrations in plasma. cTnI plasma levels were assayed using the High Sensitivity Mouse Cardiac Troponin-I ELISA Kit (Life Diagnostics, Inc., West Chester, Pa., Cat. No. 2010-1-HSP), according to the manufacturer's instructions.

[3] = test system: C57BL/6 mice; experiment: Blood lactate after transient ischemia; details: 6-hour reperfusion; 2 weeks 289 nmol/kg; P<0.05 compared to vehicle
Method: as §1, §2
Blood lactate. Blood lactate was determined using the Lactate Pro Analyser (FaCT Canada Consulting Ltd, Quesnel, BC, Canada), according to the manufacturer's instructions.

Compound	reduction of infarct area ([1]; 2-week pretreatment, same drug regimen (300 μg/kg/d), CD36^+/+ mice, 48 hours reperfusion) [%]	reduction of cardiac troponin I (cTnI) levels in plasma [2] [%]	area-at-risk ([1]; mouse, in vivo)	reduction of IA/LV ratios ([1]; mouse, in vivo) [%]	reduction of lactate concentration in blood [3] [%]	area-at-risk ([1]; CD36^+/+ (C57BL/6) mice, 289 nmol/kg 2 weeks, 48 hours reperfusion, mean (±SE))	reduction of IA/LV ratios ([1]; CD36^+/+ (C57BL/6) mice, 289 nmol/kg 2 weeks, 48 hours reperfusion, p<0.001 vs 0.9% NaCl) [%]
C[C@H](N)C(=O)NN(Cc1ccccc1)C(=O)N[C@@H](C)C(=O)N[C@@H](Cc1c[nH]c2ccccc12)C(=O)N[C@H](Cc1ccccc1)C(=O)N[C@@H](CCCCN)C(N)=O [CP1A(IV), Ala-AzaPhe-Ala-Trp-DPhe-Lys-NH2] (H-A[azaPhe]AW[dF]K-NH2)	49	–	–	–	–	–	–
C[C@H](N)C(=O)N[C@H](Cc1c[nH]c2ccccc12)C(=O)N[C@@H](C)C(=O)NN(Cc1ccccc1)C(=O)N[C@H](Cc1ccccc1)C(=O)N[C@@H](CCCCN)C(N)=O [CP-3(iv), Ala-D-Trp-Ala-AzaPhe-DPhe-Lys-NH2] (H-A[dW]A[azaPhe][dF]K-NH2)	–	42	52 (±3) %	56	27	–	–
NCCCC[C@H](NC(=O)[C@@H](Cc1ccccc1)NC(=O)[C@H](Cc1c[nH]c2ccccc12)NC(=O)N1CCCN1C(=O)[C@@H](Cc1c[nH]c2ccccc12)NC(=O)[C@@H](N)Cc1cnc[nH]1)C(N)=O [CP-AP-4, His-D-Trp-AzaPro-Trp-DPhe-Lys-NH2] (H-H[dW][azaPro]W[dF]K-NH2)	–	54	–	–	32	50 (±4) %	50
